Data from PMC10233829 (ACS Omega, 2023).
Converted amounts (≈) assume the structure as drawn. Like-named read-outs stand apart in the source and are kept apart here.

Tests used:
[1] = tested on: PC3 cells; experiment: MTT assay, cytotoxic activity; type: cell-based, human; details: Homo sapiens, PC-3, 72 h, MTT, 72 h
Procedure: Metastatic prostate cancer (PC3) and human immortal keratinocyte (HaCaT) cell lines were purchased from the American Type Culture Collection (ATCC, Rockville, MD, USA) and cultured in MEM (minimal essential medium, Thermo Sci, USA), RPMI 1640 (Roswell Park Memorial Institute, Biowest SAS, France), and DMEM (Dulbecco’s Modified Eagle’s Medium, Biowest SAS, France). Cells were seeded in 6 mL medium in a tissue culture flask (50 mL) in a 37 °C/5% CO2 humidified incubator. […] MTT analysis was performed according to a previous study.[59] Untreated cells were used as controls. Cell absorbance results were inserted into the formula for the relative MTT level (%). It allows to calculate the viability of cells under the influence of the tested compounds. Cell viability was expressed as the percentage of MTT reduction in cells treated with tested compounds compared to the control sample. The relative MTT level was calculated using the formula [100%] = A/B × 100% where A—the test sample absorbance and B—the control sample absorbance.

[2] = MTT assay, cytotoxic activity; type: cell-based; details: human
Procedure: Cells were seeded in 6 mL medium in a tissue culture flask (50 mL) in a 37 °C/5% CO2 humidified incubator. […] MTT analysis was performed according to a previous study.[59] Untreated cells were used as controls. Cell absorbance results were inserted into the formula for the relative MTT level (%). It allows to calculate the viability of cells under the influence of the tested compounds. Cell viability was expressed as the percentage of MTT reduction in cells treated with tested compounds compared to the control sample. The relative MTT level was calculated using the formula [100%] = A/B × 100% where A—the test sample absorbance and B—the control sample absorbance.

[3] = tested on: M. tuberculosis H37Rv; experiment: Tuberculostatic activity, Microplate Alamar Blue Assay (MIC); type: cell-based, Mycobacterium tuberculosis; details: Mycobacterium tuberculosis, H37RV, read-out: MIC M. tuberculosis H37Rv
[4] = tested on: M. tuberculosis Spec. 192; experiment: as above; type: cell-based; details: Mycobacterium tuberculosis, MABA, read-out: MIC M. tuberculosis Spec. 192 (sensitive to tuberculostatics)

SMILES	IC50 [1]	IC50 at 72 h [2]	MIC ([3]; MABA)	MIC [4]	MIC [3]
COc1cccc2c1C(=O)c1c(O)c3c(c(O)c1C2=O)C[C@@](O)(C(=O)CO)C[C@@H]3O[C@H]1C[C@H](N)[C@H](O)[C@H](C)O1 [doxorubicin, reference compound]	300 ± 120 nM	300 ± 110 nM			
CC[C@@H](CO)NCCN[C@@H](CC)CO [ethambutol(EMB), ethambutol, reference compound]			2 µg/mL (≈ 9.79 µM)	2 µg/mL (≈ 9.79 µM)	
NNC(=O)c1ccncc1 [isoniazid (INH), isoniazid, reference compound]				0.125 µg/mL (≈ 0.911 µM)	0.125 µg/mL (≈ 0.911 µM)
CO[C@H]1/C=C/O[C@@]2(C)Oc3c(C)c(O)c4c(O)c(c(/C=N/N5CCN(C)CC5)c(O)c4c3C2=O)NC(=O)/C(C)=C\C=C\[C@H](C)[C@H](O)[C@@H](C)[C@@H](O)[C@@H](C)[C@H](OC(C)=O)[C@@H]1C [rifampicin (RMP), rifampicin, reference compound]			1 µg/mL (≈ 1.22 µM)	1 µg/mL (≈ 1.22 µM)	
[H]/N=C(/N)N[C@H]1[C@H](O)[C@@H](O)[C@H](O[C@@H]2O[C@@H](C)[C@](O)(C=O)[C@H]2O[C@@H]2O[C@@H](CO)[C@H](O)[C@@H](O)[C@@H]2NC)[C@@H](N/C(N)=N\[H])[C@@H]1O [streptomycin (SM), streptomycin, reference compound]			1 µg/mL (≈ 1.72 µM)	1 µg/mL (≈ 1.72 µM)	
